According to patent US7294710B2 (Japan Science and Technology Agency, priority 1999, dated 2007):

T1: nematode high-affinity choline transporter cho-1 (C48D1.3) (Caenorhabditis elegans, UniProt O02228)
T1 construct: injecting each cRNA prepared from candidate full-length cDNAs; expressed in transfected cells; host or cells: Xenopus oocytes (stage V to VI) microinjected with capped cRNA transcribed from modified pSPUTK vector
T1 sequence (O02228 1-576): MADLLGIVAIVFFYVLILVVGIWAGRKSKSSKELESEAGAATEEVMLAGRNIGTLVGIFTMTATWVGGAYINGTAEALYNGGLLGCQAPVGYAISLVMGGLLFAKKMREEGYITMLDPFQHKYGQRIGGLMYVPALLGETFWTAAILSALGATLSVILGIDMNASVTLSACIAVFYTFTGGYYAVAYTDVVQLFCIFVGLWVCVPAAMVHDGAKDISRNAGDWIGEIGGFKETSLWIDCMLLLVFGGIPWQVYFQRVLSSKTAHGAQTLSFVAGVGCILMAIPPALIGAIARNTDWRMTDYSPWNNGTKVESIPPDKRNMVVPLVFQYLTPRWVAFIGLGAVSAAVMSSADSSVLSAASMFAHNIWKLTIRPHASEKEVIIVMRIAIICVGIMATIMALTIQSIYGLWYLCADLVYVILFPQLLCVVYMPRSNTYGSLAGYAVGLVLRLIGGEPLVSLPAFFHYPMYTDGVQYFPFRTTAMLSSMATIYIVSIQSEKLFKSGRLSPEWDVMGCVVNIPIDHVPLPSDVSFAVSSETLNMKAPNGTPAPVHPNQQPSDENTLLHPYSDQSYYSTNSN

T2: rat CHT1 (high-affinity choline transporter) (Rattus norvegicus, UniProt Q9JMD7)
T2 construct: expressed in transfected cells; host or cells: Xenopus oocytes microinjected with CHT1 cRNA (clone in pSPUTK vector)
T2 sequence (Q9JMD7 1-580): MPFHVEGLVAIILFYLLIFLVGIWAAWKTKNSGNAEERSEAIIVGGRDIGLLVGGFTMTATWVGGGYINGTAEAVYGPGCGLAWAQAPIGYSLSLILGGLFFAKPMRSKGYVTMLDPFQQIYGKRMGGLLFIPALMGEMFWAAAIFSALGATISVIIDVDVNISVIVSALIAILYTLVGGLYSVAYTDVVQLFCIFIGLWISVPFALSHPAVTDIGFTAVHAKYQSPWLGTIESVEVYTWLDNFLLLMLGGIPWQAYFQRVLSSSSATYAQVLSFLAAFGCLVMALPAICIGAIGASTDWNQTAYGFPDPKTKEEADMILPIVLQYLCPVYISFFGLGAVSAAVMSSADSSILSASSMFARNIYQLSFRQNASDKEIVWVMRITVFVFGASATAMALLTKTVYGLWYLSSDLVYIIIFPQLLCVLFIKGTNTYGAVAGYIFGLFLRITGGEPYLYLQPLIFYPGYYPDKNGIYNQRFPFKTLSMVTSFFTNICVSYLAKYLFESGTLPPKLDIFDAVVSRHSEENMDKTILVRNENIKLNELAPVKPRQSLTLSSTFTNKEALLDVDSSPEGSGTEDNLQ

B1: rat CHT1 (high-affinity choline transporter) (Rattus norvegicus) (protein)
chain: T2 sequence (Q9JMD7 1-580)

Key:
[1] = biological target: T1, nematode high-affinity choline transporter cho-1 (C48D1.3); test: [3H] choline uptake of Xenopus oocytes injected with nematode cho-1 (C48D1.3) cRNA; type: cell-based, C. elegans
Procedure: (§1) In the presence of cap analog, cRNA was synthesized in vitro with SP6 or T7 RNA polymerase. 20 to 30 ng capped RNA was microinjected into oocytes (stage V to VI) of Xenopus. […] The oocytes completing uptake were solubilized with 10% SDS, and the amount of [^3H] was measured by a liquid scintillation counter.

[2] = biological target: T2, rat CHT1 (high-affinity choline transporter); test: [3H] choline uptake of Xenopus oocytes injected with CHT1 cRNA; type: cell-based
Procedure: as §1, with “Xenopus. The uptake was measured in basically same manner as described previously (Nature 360, 467-471, 1992).” for “Xenopus.”

[3] = test system: endogenous choline uptake of control oocytes; test: Choline uptake of control Xenopus oocytes injected with water; type: cell-based; conditions: 10 μM HC3, oocytes injected with water
Procedure: as §1, with “Xenopus. The uptake was measured in basically same manner as described previously (Nature 360, 467-471, 1992).” for “Xenopus.”

[4] = test system: high-affinity uptake of choline in brain synaptosomes; conditions: cited from earlier work
[5] = test system: low-affinity uptake of choline, distributed in every cells; conditions: read-out: Ki of HC3 for low-affinity uptake of choline, higher HC3 concentration; cited from earlier work
[6] = substrate: C[N+](C)(C)CCO; test: cells, lysate or membranes; conditions: other: Michaelis-Menten fit, water-injected uptake subtracted, n=3; pH 7.4

Molecule | Ki [1] | inhibition of cho-1 promoted choline uptake ([1]; 1 μM HC3, Xenopus oocytes) | Ki [2] | inhibition of choline uptake of CHT1 ([2]; 0.1 μM HC3) | inhibition of Na+-dependent choline uptake of CHT1 ([2]; CHT1 expressed in Xenopus oocytes, concentration not given) | inhibition of choline uptake in control [3] | inhibition of high-affinity uptake of choline ([4]; 1 μM HC3, brain synaptosomes of mammals) | Ki ([4]; read-out: Ki of HC3 for high-affinity uptake of choline, brain synaptosomes of mammals) | Ki [5] | Km [6]
C[N+]1(C)CCOC(O)(c2ccc(-c3ccc(C4(O)C[N+](C)(C)CCO4)cc3)cc2)C1 (stereo not shown) [HC3, hemicholinium-3] | 50 nM | inhibited | 2 to 3 nM | completely inhibited | completely inhibited | only slight inhibition | completely inhibited | 10 to 100 nM | 50000 nM | –
B1 | – | – | – | – | – | – | – | – | – | 2.2 ± 0.2 µM
